Assay results from US7868013B2, “Cycloalkyl substituted pyrimidinediamine compounds and their uses” (Rigel Pharmaceuticals, Inc., priority 2004, dated 2011).
Counter-ions that a name gives are not always drawn. Like-named read-outs stand apart in the source and are kept apart here. Values belong to the molecule of their own block, whether it stands above or below them.

How the values were obtained:
Assay type in all cases: cell-based
[1] = tested on: a variety of tumor cell types; assay: In vitro antiproliferation assays against a variety of tumor cell types (stereoisomer comparison); conditions: for Inhibition of proliferation of a variety of tumor cell lines: in words
Procedure: Moreover, it has been discovered that the enantiomer corresponding to the (1R,2R,3S,4S) diastereomer of structural formula (IVa) is largely responsible for the potency of the exo-exo cis racemate.
(§1) Certain compounds were tested against other cell types for their ability to inhibit proliferation in standard antiproliferation assays.

[2] = tested on: H1299 (non-small cell lung carcinoma); assay: In vitro antiproliferation assay, H1299 cells (TABLE 1 6 point assay; TABLE 2)
Procedure: as §1

H7299 = assay: In vitro antiproliferation assay, H7299 cells
Procedure: as §1

A549 (lung carcinoma) = assay: In vitro antiproliferation assay, A549 cells (TABLE 1 6 point assay; TABLE 2)
Procedure: as §1

[3] = 6 point assay, H1299 cells, read-out: IC50, H1299 cells
[4] = 6 point assay, A549 cells, read-out: IC50, A549 cells
[5] = Homo sapiens, NCI-H1299, H1299 cells, 6 point assay, read-out: H1299, 6pt (IC50, inhibition of proliferation)
[6] = Homo sapiens, A549, A549 cells, 6 point assay, read-out: A549, 6pt (IC50, inhibition of proliferation)
[7] = Homo sapiens, NCI-H1299, 6 point assay, H1299 cells, read-out: IC50, H1299 cells
[8] = Homo sapiens, A549, 6 point assay, A549 cells, read-out: IC50, A549 cells

Structure (SMILES): Cc1cc(Nc2ncc(F)c(NC3CCCC3C(N)=O)n2)ccc1N1CCN(C)CC1 [trans (1S,2S) diastereomer, N4-(2-aminocarbonylcyclopent-1-yl)-5-fluoro-N2-[4-(4-methylpiperazin-1-yl)-3-methylphenyl]-2,4-pyrimidinediamine]
- Inhibition of proliferation of a variety of tumor cell lines [1]: relatively inactive

Structure (SMILES): Cc1cc(Nc2ncc(F)c(NC3C4C=CC(C4)C3C(N)=O)n2)ccc1N1CCN(C)CC1 (racemic) [Compound 228, Racemic N4-(3-Aminocarbonylbicyclo[2.2.1]hept-5-en-2-yl)-5-fluoro-N2-[3-methyl-4-(4-methylpiperazin-1-yl)phenyl]-2,4-pyrimidinediamine Hydrogen Chloride Salt]
- IC50 [2, 3]: ≤ 100 nM
- IC50 ([2]; H1299, read-out: In Vitro IC50): ≤ 1000 nM
- IC50 (H7299): ≤ 1000 nM
- IC50 (A549 (lung carcinoma); [4]): ≤ 100 nM
- IC50 (A549 (lung carcinoma); A549, read-out: In Vitro IC50): ≤ 1000 nM

Structure (SMILES): Cc1cc(Nc2ncc(F)c(NC3CCCC3C(N)=O)n2)ccc1N1CCN(C)CC1 [cis (1R,2S), N4-(2-aminocarbonylcyclopent-1-yl)-5-fluoro-N2-[4-(4-methylpiperazin-1-yl)-3-methylphenyl]-2,4-pyrimidinediamine]
- Inhibition of proliferation of a variety of tumor cell lines [1]: inhibit the proliferation

Structure (SMILES): Cc1cc(Nc2ncc(F)c(NC3C4C=CC(C4)C3C(N)=O)n2)ccc1N1CCN(C)CC1 (racemic) [cis exo-exo racemate, N4-(3-aminocarbonylbicyclo[2.2.1]hept-5-en-2-yl)-5-fluoro-N2-[3-methyl-4-(4-methylpiperazin-1-yl)phenyl]-2,4-pyrimidinediamine]
- Potency relative to the cis endo-endo racemate ([1]; cis exo-exo racemate, all cell lines tested): approximately twenty-fold more potent

Structure (SMILES): Cc1cc(Nc2ncc(F)c(NC3CCCC3C(N)=O)n2)ccc1N1CCN(C)CC1 [cis (1S,2R), N4-(2-aminocarbonylcyclopent-1-yl)-5-fluoro-N2-[4-(4-methylpiperazin-1-yl)-3-methylphenyl]-2,4-pyrimidinediamine]
- Inhibition of proliferation of a variety of tumor cell lines [1]: inhibit the proliferation

Structure (SMILES): Cc1cc(Nc2ncc(F)c(NC3CCCC3C(N)=O)n2)ccc1N1CCN(C)CC1 [trans (1R,2R) diastereomer, N4-(2-aminocarbonylcyclopent-1-yl)-5-fluoro-N2-[4-(4-methylpiperazin-1-yl)-3-methylphenyl]-2,4-pyrimidinediamine]
- Inhibition of proliferation of a variety of tumor cell lines [1]: inhibit the proliferation

Structure (SMILES): Cc1cc(Nc2ncc(F)c(NC3C4C=CC(C4)C3C(N)=O)n2)ccc1N1CCN(C)CC1 [(1S,2S,3R,4R) diastereomer, N4-(3-aminocarbonylbicyclo[2.2.1]hept-5-en-2-yl)-5-fluoro-N2-[3-methyl-4-(4-methylpiperazin-1-yl)phenyl]-2,4-pyrimidinediamine]
- IC50s when tested as isolated stereoisomers ([1]; range in words, same cell lines): micromolar range

Structure (SMILES): Cc1ccc(Nc2ncc(F)c(N[C@H]3CCC[C@H]3C(N)=O)n2)cc1OCC(=O)N1CCN(C)CC1 (racemic) [compound 102, Racemic-cis-N4-(2-aminocarbonylcyclopent-1-yl)-5-fluoro-N2-[4-methyl-3-(4-methylpiperazin-1-yl)carbonylmethyleneoxyphenyl]-2,4-pyrimidinediamine]
- IC50 [2, 5]: 1000 to 10000 nM
- IC50 (A549 (lung carcinoma); [6]): 1000 to 10000 nM

Structure (SMILES): Cc1cc(Nc2ncc(F)c(N[C@H]3[C@@H](C(N)=O)[C@@H]4C=C[C@H]3C4)n2)ccc1OCC1CCN(C)CC1 [compound 153, (1R,2R,3S,4S)-N4-(3-Aminocarbonylbicyclo[2.2.1]hept-5-en-2-yl)-5-fluoro-N2-[4-(1-methylpiperidin-4-ylmethyleneoxy)-3-methylphenyl]-2,4-pyrimidinediamine]
- IC50 [2, 5]: ≤ 100 nM
- IC50 (A549 (lung carcinoma); [6]): ≤ 100 nM

Structure (SMILES): CN(C)CCN1CCc2cc(Nc3ncc(F)c(N[C@@H]4[C@H](C(N)=O)[C@H]5C=C[C@@H]4C5)n3)ccc21 (racemic) [compound 160, Racemic-(2-exo,3-exo)-N4-[3-aminocarbonylbicyclo[2.2.1]hept-5-en-2-yl)-N2-[1-(2-dimethylaminoethyl)-2,3-dihydroindol-5-yl]-5-fluoro-2,4-pyrimidinediamine]
- IC50 [2, 5]: ≤ 100 nM
- IC50 (A549 (lung carcinoma); [6]): 100 to 1000 nM

Structure (SMILES): CN(C)CCN1CCOc2cc(Nc3ncc(F)c(N[C@H]4[C@@H](C(N)=O)[C@@H]5C=C[C@H]4C5)n3)ccc21 [compound 189, (1R,2R,3S,4S)-N4-(3-Aminocarbonylbicyclo[2.2.1]hept-5-en-2-yl)-5-fluoro-N2-(1-[2-(dimethylamino)ethyl]-3,4-dihydro-4H-benz[1,4]oxazin-6-yl}-2,4-pyrimidinediamine]
- IC50 [2, 5]: ≤ 100 nM
- IC50 (A549 (lung carcinoma); [6]): ≤ 100 nM

Structure (SMILES): Cc1cc(Nc2ncc(F)c(NC3C4CC5CC(C4)CC3C5)n2)ccc1N1CCN(C)CC1 (stereo not shown) [compound 258, N4-(2-Adamantyl)-5-fluoro-N2-[3-methyl-4-(4-methylpiperazin-1-yl)phenyl]-2,4-pyrimidinediamine]
- IC50 [2, 7]: 1000 to 10000 nM
- IC50 (A549 (lung carcinoma); [8]): 1000 to 10000 nM

Further lines, results first:

- IC50 [2, 7]: ≤ 100 nM
- IC50 (A549 (lung carcinoma); [8]): ≤ 100 nM
Structure (SMILES): Cc1cc(Nc2ncc(F)c(NC3C4C=CC(C4)C3C(N)=O)n2)ccc1NC1CCN(C)CC1 (racemic) [compound 262, Racemic-(2-exo,3-exo)-N4-(3-aminocarbonylbicyclo[2.2.1]hept-5-en-2-yl)-5-fluoro-N2-[3-methyl-4-(1-methylpiperidin-4-ylamino)phenyl]-2,4-pyrimidinediamine]

- IC50 [2, 3]: 100 to 1000 nM
- IC50 (A549 (lung carcinoma); [4]): 100 to 1000 nM
Structure (SMILES): CN1CCN(c2ccc(Nc3ncc(F)c(NC4CCCC4C(N)=O)n3)cc2)CC1 (stereo not shown) [compound 203, N4-(2-Carboxamidocyclopentyl)-5-fluoro-N2-[4-(4-methylpiperazino)phenyl]-2,4-pyrimidinediamine Monohydrochloride Salt]

- IC50 ([2]; 6 point assay, H1299 cells, Bis Hydrochloride Salt, read-out: IC50, H1299 cells): 1000 to 10000 nM
- IC50 (A549 (lung carcinoma); 6 point assay, A549 cells, Bis Hydrochloride Salt, read-out: IC50, A549 cells): 1000 to 10000 nM
Structure (SMILES): CCS(=O)(=O)N1CCN(c2ccc(Nc3ncc(F)c(N[C@H]4[C@@H](C(N)=O)[C@@H]5C=C[C@H]4C5)n3)cc2C)CC1 [compound 270, (1R,2R,3S,4S)-N4-(3-aminocarbonylbicyclo[2.2.1]hept-5-ene-2-yl)-N2-[3-methyl-4-(4-ethylsulfonylpiperazin-1-yl)phenyl]-5-fluoro-2,4-pyrimidinediamine Bis Hydrochloride Salt]

- IC50 [2, 5]: ≤ 100 nM
- IC50 (A549 (lung carcinoma); [6]): ≤ 100 nM
Structure (SMILES): Cc1cc(Nc2ncc(F)c(N[C@H]3[C@@H](C(=O)NC4CCC4)[C@@H]4C=C[C@H]3C4)n2)ccc1N1CCN(C)CC1 [compound 192, (1R,2R,3S,4S)-N4-[3-(N-Cyclobutyl)aminocarbonylbicyclo[2.2.1]hept-5-en-2-yl]-5-fluoro-N2-[3-methyl-4-(4-methylpiperazin-1-yl)phenyl]-2,4-pyrimidinediamine]

- IC50 [2, 7]: 100 to 1000 nM
- IC50 (A549 (lung carcinoma); [8]): 1000 to 10000 nM
Structure (SMILES): CC(=O)N1CCN(c2cccc(Nc3ncc(F)c(NC4CCCC4C(N)=O)n3)c2)CC1 (stereo not shown) [compound 197, N2-[3-(4-Acetylpiperazino)phenyl]-N4-(2-carboxamidocyclopentyl)-5-fluoro-2,4-pyrimidinediamine]

- IC50 [2, 7]: ≤ 100 nM
- IC50 (A549 (lung carcinoma); [8]): ≤ 100 nM
Structure (SMILES): CN1CCN(c2ccc(Nc3ncc(F)c(NC4C5C=CC(C5)C4C(N)=O)n3)cc2)CC1 (racemic) [compound 230, Racemic-(2-exo,3-exo)-N4-(3-aminocarbonylbicyclo[2.2.1]hept-5-en-2-yl)-5-fluoro-N2-[4-(4-methylpiperazin-1-yl)phenyl]-2,4-pyrimidinediamine]

- IC50 [2, 7]: ≤ 100 nM
- IC50 (A549 (lung carcinoma); [8]): ≤ 100 nM
Structure (SMILES): CN1CCC(c2ccc(Nc3ncc(F)c(NC4C5C=CC(C5)C4C(N)=O)n3)cc2)CC1 (racemic) [compound 265, Racemic-(2-exo,3-exo)-N4-(3-aminocarbonylbicyclo[2.2.1]hept-5-en-2-yl)-5-fluoro-N2-[4-(1-methylpiperidin-4-yl)phenyl]-2,4-pyrimidinediamine]

- IC50 [2, 3]: 100 to 1000 nM
- IC50 (A549 (lung carcinoma); [4]): 100 to 1000 nM
Structure (SMILES): CN1CCN(c2ccc(Nc3ncc(F)c(NC4CCCC4C(N)=O)n3)cc2Cl)CC1 (stereo not drawn) [compound 205, (cis)-N4-(2-Carboxamidocyclopent-1-yl)-N2-[3-chloro-4-(4-methylpiperazino)phenyl]-5-fluoro-2,4-pyrimidinediamine]

- IC50 [2, 7]: 100 to 1000 nM
- IC50 (A549 (lung carcinoma); [8]): 100 to 1000 nM
Structure (SMILES): COCc1cc(Nc2ncc(F)c(N[C@H]3CCC[C@H]3C(N)=O)n2)ccc1N1CCN(C)CC1 (racemic) [compound 216, Racemic-cis-N4-(2-aminocarbonylcyclopent-1-yl)-5-fluoro-N2-[4-(4-methylpiperazin-1-yl)-3-methoxymethylenephenyl]-2,4-pyrimidinediamine]

- IC50 [2, 5]: ≤ 100 nM
- IC50 (A549 (lung carcinoma); [6]): ≤ 100 nM
Structure (SMILES): Cc1cc(Nc2ncc(F)c(N[C@H]3[C@@H](C(N)=O)[C@@H]4C=C[C@H]3C4)n2)ccc1N1CCN(CCO)CC1 [compound 116, (1R,2R,3S,4S)-N4-(3-Aminocarbonylbicyclo[2.2.1]hept-5-en-2-yl)-5-fluoro-N2-{4-[4-(2-hydroxyethyl)piperazin-1-yl]-3-methylphenyl}-2,4-pyrimidinediamine]

- IC50 [2, 7]: ≤ 100 nM
- IC50 (A549 (lung carcinoma); [8]): ≤ 100 nM
Structure (SMILES): Cc1cc(Nc2ncc(F)c(NC3C4CCC(C4)C3C(=O)NC3CC3)n2)ccc1N1CCN(C)CC1 (racemic) [compound 252, Racemic-(2-exo,3-exo)-N4-(3-N-cyclopropylaminocarbonylbicyclo[2.2.1]hept-2-yl)-5-fluoro-N2-[3-methyl-4-(4-methylpiperazin-1-yl)phenyl]-2,4-pyrimidinediamine]
